Results taken from patent publication US20120202884A1, “INHIBITORS OF CXCR1/2 AS ADJUVANTS IN THE TRANSPLANT OF PANCREATIC ISLETS” (DOMPE' S.P.A., priority 2009, published 2012).

What was measured:
diabetic C57 mice [1] = test: Allogeneic islet transplantation in bone marrow of diabetic mice; format: in vivo; conditions: 400 EI Balb/c islets in bone marrow; Reparixin 8 mg/h/kg s.c. continuous infusion 7 days from day -1
Experimental: A control group of mice was treated with vehicle.

[2] = system: intrahepatic leukocyte (IHL) population; test: Intrahepatic leukocyte population after allogeneic intrahepatic islet transplantation (flow cytometry); format: in vivo, mice
Experimental: The intrahepatic leukocyte population was analysed in the presence or in the absence of Reparixin treatment after allogeneic intrahepatic islet transplantation in mice. […] The mice were sacrificed at day 0, +1, +3, +5, +7, +10, +14 after islet transplantation and the livers were weighed at the time of autopsy. Single cell suspensions were prepared from two liver lobes of known weight and analysis of the intrahepatic leukocyte (IHL) population was performed flow cytometry. The cells were surface stained with fluorescein isothiocyanate (FITC)-, phycoerythrin (PE)- or allophycocyanin (APC)-labeled anti-CD4, anti-CD8, anti-CD3, anti CD19, anti-TCR, anti-NK1.1, anti CD11, anti-Gr-1, anti-CD11b, and anti-CD11c Abs (PharMingen, San Diego, Calif.) for the detection of Gr-^+/CD11b^+/CD11c^− cells (mostly PMNs), […] (mostly T helper cell), CD8^+/TCR^+ cells (mostly CTLs), […], NK1.1^+/CD3^+ cells (NKT cells) and Gr-1^−/CD11b^−/CD11c^− (mostly macrophages), CD115+/CD11b+/Cd11c− (mostly monocytes), CD11c+/CD11b+/Gr1− (mostly dendritic cells), CD19 (mostly B lymphocytes). Samples were acquired on a FACSCalibur flow cytometer and the data were analyzed using CELLQuest software (Becton Dickinson Immunocytometry Systems, San Jose, Calif.). In a second set of experiments, CXCR2 and CXCR1 expression on IHL Population was evaluated at the time point in which leucocyte infiltration gained the highest degree of infiltration.

diabetic C57 mice [3] = test: Allogeneic islet transplantation in the liver of diabetic mice; conditions: for Odds ratio, Multivariate Cox Regression Analysis of loss of graft survival: Reparixin 95% CI 0.099-0.64, p=0.004, Rapamycin 95% CI 0.562-2.45, p=0.67; for Odds ratio, Multivariate Cox Regression Analysis of reaching primary function: allogeneic transplant, Reparixin 95% CI 0.79-2.99, p<0.202, Rapamycin 95% CI 0.62-2.15, p<0.62; for probability to reach the primary function (glycaemia<250 mg/dl) / median time to reach the primary function (glycaemia<250 mg/dl): allogeneic, 400 IE in liver; for probability to reach the primary function (glycaemia<250 mg/dl): Reparixin 5.28 mg/kg/h s.c. day -1 to 7, Rapamycin i.p. 0.3 then 0.15 mg/kg to day 14, vehicle 44%; for median time to reach the primary function (glycaemia<250 mg/dl): vehicle 2 days; for median survival time (graft): mice that achieved primary function, vehicle 8±0.5 days
Experimental: Islets from 12 week old Balb/c mice were transplanted in the liver of diabetic C57 mice (alloxan, glycaemia>450 mg/dl). […] In both cases 400 IE were transplanted.
The ability to reach primary function, defined as non-fasting blood glucose levels less than 250 mg/dl for 2 consecutive measurements after islet transplantation and the time to rejection defined as 2 consecutive non-fasting blood glucose readings greater than 300 mg/dL were first evaluated.

diabetic C57 mice [4] = test: Syngeneic islet transplantation in the liver of diabetic mice; format: in vivo
Experimental: Two different marginal islet mass models, 150 IE (Islet Equivalents) and 250 IE, were used. […] Control animals received continuous s.c. vehicle.
The ability to reach a non-fasting blood glucose level less than 200 mg/dl for two consecutive measurements after islet transplantation was first evaluated.
An intravenous glucose tolerance test (IVGTT) and an oral glucose tolerance test (OGTT) were performed 1 and 3 months after transplantation to evaluate the functionality of the grafted islets. IVGTT was initiated after a 16-hour fast; the mice were given glucose (0.5 g/kg) by tail vein injection. Blood samples were obtained 0, 1, 5, 15, 20, 30 and 60 minutes after injection and were used to determine glucose concentrations. From the IVGTT, glucose tolerance was quantified from the glucose elimination constant (KG; expressed as percent elimination of glucose per minute) as the reduction in circulating glucose between 1 and 15 min (KG1-15) after intravenous administration, following the logarithmic transformation of the individual plasma glucose values. A similar estimation was performed for the total 1- to 60-min glucose disappearance rate (KG 1-60). This parameter indicates the rate of glucose disappearance during the whole test. OGTT was initiated after a 4-hour fast; the mice were given glucose (1 g/kg) by oral gavage. Blood samples were obtained 0, 10, 20, 30, 60, 90 and 120 minutes after glucose administration and used to determine glucose concentrations. The area under the curve (AUC) for glucose during OGTT was calculated using the trapezoidal method (baseline=0 min). […] The data are reported as scatter plots. […] Upper and lower panels respectively report the data 1 and 3 months after transplantation.
Acute liver damage was quantified by circulating levels of alanine aminotransferase (ALT) 24 h and 48 h after Transplantation.

[5] = 1 and 3 months after transplantation, versus control mice

| Compound | outcome (primary function and time to rejection) (diabetic C57 mice [1]) | leucocytes recruitment and infiltration in the liver ([2]; allogeneic transplant 400 EI, Reparixin 8 mg/h/kg s.c. continuous infusion 7 days from day -1) | PMNs in the liver ([2]; allogeneic transplant, Reparixin 8 mg/h/kg s.c., FIG. 8) | NKT cells in the liver ([2]; allogeneic transplant, Reparixin 8 mg/h/kg s.c., FIG. 9) | Odds ratio, Multivariate Cox Regression Analysis of loss of graft survival (diabetic C57 mice [3]) | Odds ratio, Multivariate Cox Regression Analysis of reaching primary function (diabetic C57 mice [3]) | probability to reach the primary function (glycaemia<250 mg/dl) (diabetic C57 mice [3]) | median time to reach the primary function (glycaemia<250 mg/dl) (diabetic C57 mice [3]) | time to rejection (diabetic C57 mice [3]; mice that achieved primary function post-transplant, rejection = 2 consecutive non-fasting glucose readings >300 mg/dL) | median survival time (graft) (diabetic C57 mice [3]) | glucose elimination constant between 1 and 15 min (KG1-15), IVGTT (diabetic C57 mice [4]; [5]) | glucose elimination constant between 1 and 60 min (KG1-60), IVGTT (diabetic C57 mice [4]; [5]) | AUC for glucose during OGTT (diabetic C57 mice [4]; 1 and 3 months post transplant, versus control mice) | circulating levels of alanine aminotransferase (ALT), acute liver damage (diabetic C57 mice [4]; 24 h and 48 h after transplantation, 150 or 250 IE) | probability to reach euglycaemia (<200 mg/dl) (diabetic C57 mice [4]; syngeneic C57 islets, 150 or 250 IE in liver, Reparixin 8 mg/kg/h s.c. continuous infusion day -1 to 6 or 13, vehicle 35.1%) | median time to reach euglycaemia (<200 mg/dl) (diabetic C57 mice [4]; syngeneic C57 islets, 150 or 250 IE in liver, Reparixin 8 mg/kg/h s.c. continuous infusion, vehicle 50 days) | Odds ratio, Multivariate Cox Regression Analysis of reaching euglycaemia (diabetic C57 mice [4]; syngeneic transplant, 95% CI: 1.1-6.1, p<0.021) | circulating levels of white blood cells, red blood cells and platelets (diabetic C57 mice [4]; syngeneic transplant, data not shown) |
| --- | --- | --- | --- | --- | --- | --- | --- | --- | --- | --- | --- | --- | --- | --- | --- | --- | --- | --- |
| CC(C)Cc1ccc([C@@H](C)C(=O)NS(C)(=O)=O)cc1 [Reparixin, R(−)-2-[(4-isobutylphenyl)propionyl]-methanesulfonamide] | improved | reduces | significantly affected | significantly affected | 0.252 | 2.5 | 72% | 1 days | significantly increased | 12 ± 0.6 days | significantly increased | significantly increased | remains lower than that of the control mice | not affected | 50% | 7 days | 2.6 | no difference |
| CO[C@H]1C[C@@H]2CC[C@@H](C)[C@@](O)(O2)C(=O)C(=O)N2CCCC[C@H]2C(=O)O[C@H]([C@H](C)C[C@@H]2CC[C@@H](O)[C@H](OC)C2)CC(=O)[C@H](C)/C=C(\C)[C@@H](O)[C@@H](OC)C(=O)[C@H](C)C[C@H](C)/C=C/C=C/C=C/1C [Rapamycin, reference compound] |  |  |  |  | 1.173 | 1.1 | 73% | 1 days |  | 8 ± 0.6 days |  |  |  |  |  |  |  |  |
